These results are taken from patent US9486461B2, “Methods and compositions for inducing apoptosis by stimulating ER stress” (UNIVERSITY OF SOUTHERN CALIFORNIA, priority 2007, dated 2016).

pIC50: −log10 of the molar value.

Data set [1] has as its system U251 glioblastoma cells. Description: MTT assay, U251. It is filed as cell-based, human. Here is the method:
U251 glioblastoma cells were treated with different drugs, and various parameters of cell growth and cell death were comparatively analyzed. As controls, cells remained either non-treated (Co) or were treated with the solvent DMSO alone. (FIG. 8A) Cells were treated with 30 or 50 μM DMC for 48 hours and the effects on cell growth/survival and on cell death were determined by various assays. […] Below the three panels, the expression levels of the ER stress indicators CHOP, GRP78, and caspase 4 at the end of the 48 hour drug treatment is shown, as determined by Western blot analysis with specific antibodies (actin served as a loading control. (FIG. 8B) Cells were treated with various concentrations of different drugs for 48 hours, as indicated, and cell death was measured with the cell death ELISA kit. (FIG. 8C) Cells were treated with DMC or various coxibs and traditional NSAIDs for 48 hours, as indicated, and cell growth and survival was determined with the conventional MTT assay (control, non-treated cells were set at 100%). MTT assays were performed in 96-well plates with the use of 3.0-8.0×10^3 cells per well as described in detail elsewhere (34). In parallel, the expression levels of CHOP and GRP78 protein were determined by Western blot analysis. […]
(§1) 3-(4,5-Dimethylthiazol-2-yl)-2,5-diphenyltetrazolium bromide (MTT) assays were performed in 96-well plates with the use of 3.0×10^3 to 8.0×10^3 cells per well as described in detail elsewhere (19).

Data set [2] has as its system U87 glioblastoma tumors. As to the kind of experiment: Tumor growth in xenograft nude mouse model. It counts as in vivo, nude mice. As to conditions: daily chow for DMC, 40 mg/kg for rofecoxib, n=5. Here is the method: Once palpable tumors had formed, the animals received daily chow supplemented with DMC, rofecoxib, or no drug. Tumor size was determined every three days. Shown is the average (mean±SD) tumor volume in each group (n=5). Asterisks (**): p<0.01 between control and DMC-treated animals on day 42.

Data set [3] deals with cytoplasmic calcium levels in U251 cells. As to the kind of experiment: Cytoplasmic calcium imaging (Fura-2/AM). As to conditions: 100 μmol/L of each drug, Fura-2/AM loaded cells. It is filed as cell-based, human. Here is the method:
(A) U251 cells were treated with DMC or various coxibs and NSAIDs, and changes in intracellular calcium levels were recorded as described in Materials & Methods. […] Arrows indicate timepoint of drug addition. […] Essentially similar results were also obtained with the LN229 cell line.
The cells were loaded by incubating them with […] Fura-2/AM (Invitrogen) for 30 min at room temperature in external solution containing 138 mmol/L NaCl, 5.6 mmol/L KCl, 1.2 mmol/L MgCl2, 2.6 mmol/L CaCl2, 10 mmol/L HEPES, and 4 mmol/L glucose (pH 7.4). After loading, the cells were rinsed and transferred to the imaging setup. The cells were treated with individual drugs for 10 s, whereas fluorescence was elicited with the excitation wavelength alternating between 350 and 380 nm, using a Polychromator V (TILL Photonics GmbH, Grafelfing, Germany) to provide illumination via a Zeiss Axiovert 100 microscope with a Zeiss Fluar 40 oil objective (Carl Zeiss, Jena, Germany). Images were captured using a Cascade 512B CCD camera (Photometrics, Tucson, Ariz.) controlled with MetaFluor software (Molecular Devices, Sunnyvale, Calif.) at 0.5 Hz acquisition frequency. Ratios of the images obtained at 350 and 380 nm excitation were used to show changes in the cytoplasmic calcium concentration, according to the principles developed by Grynkiewicz et al. (31).

Data set [4] has as its system U87 glioblastoma tumors. As to the kind of experiment: TUNEL assay of xenograft tumor tissue.
The subject of data set [5] is U251 glioblastoma cells. Description: Cell death ELISA, U251. It counts as cell-based, human. As to conditions: U251, 48 hours, concentrations of up to 100 μmol/L. How it is done:
U251 glioblastoma cells were treated with different drugs, and various parameters of cell growth and cell death were comparatively analyzed. As controls, cells remained either non-treated (Co) or were treated with the solvent DMSO alone. (FIG. 8A) Cells were treated with 30 or 50 μM DMC for 48 hours and the effects on cell growth/survival and on cell death were determined by various assays. […] Below the three panels, the expression levels of the ER stress indicators CHOP, GRP78, and caspase 4 at the end of the 48 hour drug treatment is shown, as determined by Western blot analysis with specific antibodies (actin served as a loading control. (FIG. 8B) Cells were treated with various concentrations of different drugs for 48 hours, as indicated, and cell death was measured with the cell death ELISA kit. (FIG. 8C) Cells were treated with DMC or various coxibs and traditional NSAIDs for 48 hours, as indicated, and cell growth and survival was determined with the conventional MTT assay (control, non-treated cells were set at 100%). MTT assays were performed in 96-well plates with the use of 3.0-8.0×10^3 cells per well as described in detail elsewhere (34). In parallel, the expression levels of CHOP and GRP78 protein were determined by Western blot analysis.
Apoptosis in cell cultures in vitro was determined by using the Cell Death Detection ELISA kit (Roche Diagnostics, Indianapolis, Ind.) according to the manufacturer's instructions. This immunoassay specifically detects the histone region (H1, H2A, H2B, H3, and H4) of mononucleosomes and oligonucleosomes that are released during apoptosis. Ninety-six-well plates were seeded with 1,000 cells per well and read at 405 nm in a Microplate Autoreader (Model EL 311 SX; Bio-Tek Instruments, Inc., Winooski, Vt.).

Data set [6] concerns CHOP, GRP78, caspase 4 in U251 glioblastoma cells. As to the kind of experiment: Western blot of ER stress indicators in U251 cells. It is filed as cell-based, human. How it is done:
U251 glioblastoma cells were cultured in the presence of 1 μM thapsigargin (Tg) or 60 μM DMC for various times, as indicated. Total cell lysates were prepared and analyzed by Western blot with specific antibodies to the ER stress proteins GRP78, CHOP, and caspase 4 (Casp 4). Actin was used as a loading control.
Shown are (A) time kinetics at 50 μM of each drug, and (B) concentration dependence after 15 hours of incubation.
Shown are (FIG. 7A) time kinetics at 50 μM of each drug, and (FIG. 7B), concentration dependence after 15 hours of incubation.
U251 glioblastoma cells were cultured for 24 hours in the presence of increasing concentrations of (A) bortezomib (BZM) or (B) DMC. Total cell lysates were analyzed by Western blot with specific antibodies to ubiquitin, GRP78, CHOP, and caspase 4. Actin was used as a loading control.
Total cell lysates were prepared by lysis of cells with radioimmunoprecipitation assay buffer (28), and protein concentrations were determined using the bicinchoninic acid protein assay reagent (Pierce, Rockford, Ill.). For Western blot analysis, 50 Ag of each sample were processed as described (29). The primary antibodies were purchased from Cell Signaling Technologies (Beverly, Mass.), Cayman Chemical (Ann Arbor, Mich.), or Santa Cruz Biotechnology, Inc. (Santa Cruz, Calif.) and used according to the manufacturer's recommendations. The secondary antibodies were coupled to horseradish peroxidase and detected by chemiluminescence using the SuperSignal West substrate from Pierce. All immunoblots were repeated at least once to confirm the results.
(§2) Total cell lysates were prepared and analyzed by Western blot analysis as described earlier (19). Immunohistochemical analysis of protein expression in tumor tissues was performed with the use of the Vectastain avidin-biotin complex method kit (Vector Laboratories) as described previously (32). The primary antibodies were purchased from Cell Signaling Technology or Santa Cruz Biotechnology, Inc. and used according to the manufacturers' recommendations. All immunoblots and stainings were repeated at least once to confirm the results.

Data set [7] relates to CHOP protein in U87 glioblastoma tumor tissue. As to the kind of experiment: Immunohistochemical staining for CHOP in xenograft tumor tissue. It is filed as in vivo, nude mice. The source says: In all cases, representative sections are shown.
Immunohistochemical analysis of protein expression in tumor tissues was done with the use of the Vectastain avidin-biotin complex method kit (Vector Laboratories, Burlingame, Calif.) according to the manufacturer's instructions. This procedure uses biotinylated secondary antibodies and a preformed avidin: biotinylated enzyme complex that has been termed the avidin-biotin complex method technique. As the primary antibody, we used anti-CHOP antibody (Santa Cruz Biotechnology) diluted 1:100 in 2% normal goat blocking serum.

For data set [8], the system named is Tumor-associated Brain Endothelial Cells (TuBEC). Description: Trypan blue exclusion, tumor-associated brain endothelial cells. It is filed as cell-based. Here is the method: After drug treatment the cells were incubated for another 12 days in the absence of drug, in order to determine their long-term survival; at that time cytotoxicity was evaluated using the trypan blue exclusion technique. Results are presented as number of viable cells per group.
Tumor-associated Brain Endothelial Cells (TuBEC) were treated with TMZ (300 uM) and 20 uM DMC for 48 hours. The drugs were removed and cells were incubated for another 12 days; at that time cytotoxicity was evaluated using the trypan blue exclusion technique. Results are presented as number of viable cells per group.

Data set [9] relates to LN229 cells. Description: Colony formation assay, LN229. It counts as cell-based, human. As to conditions: LN229: 5 nM BZM, 60 μM CXB, 40 μM DMC, alone or combined; 48 hours, colonies two weeks thereafter. Here is the method: Representative sections are shown. (B) Quantitative analysis of combination drug effects. […] Cell viability was determined by trypan blue exclusion assay.
The different small interfering RNAs (siRNA) were synthesized at the microchemical core laboratory of the University of Southern California/Norris Comprehensive Cancer Center; their sequences are described in ref. 32. Transfections of cells with these siRNAs and subsequent analysis of cell survival by colony formation assay have been described in detail elsewhere (32).

The test system of data set [10] is LN229 glioblastoma cell line. As to the kind of experiment: MTT assay, LN229. As to conditions: Homo sapiens, LN-229, LN229, 48 h, read-out: IC50 (50% inhibition of cell growth). It is filed as cell-based, human. Here is the method: (§3) For comparison purposes to the known anti-multiple myeloma effects of bortezomib, the RPMI/8226 multiple myeloma cell line was included in (A).
as §1

Data set [11] relates to RPMI/8226 multiple myeloma cell line. Description: MTT assay, RPMI/8226. It counts as cell-based. As to conditions: RPMI/8226, 48 h, not more sensitive than the glioblastoma cell lines. Here is the method:
as §3, §1

The subject of data set [12] is polyubiquitinated proteins in U251 cells. As to the kind of experiment: Western blot of polyubiquitinated proteins, U251. It is filed as cell-based, human. As to conditions: U251, increasing concentrations, 24 hours. Here is the method: Total cell lysates were analyzed by Western blot with specific antibodies to ubiquitin, GRP78, CHOP, and caspase 4. Actin was used as a loading control. […] Note that in the caspase 4 blots several non-specific background bands were observed (consistent with similar observations in the literature); the specific bands were identified with the use of various controls (not shown) and comparison to the literature.
as §2

The subject of data set [13] is U87MG glioblastoma cell line. As to the kind of experiment: MTT assay, U87MG. It counts as cell-based. As to conditions: Homo sapiens, U-87 MG, 48 h, read-out: IC50 (50% inhibition of cell growth). How it is done: as §3, §1
For data set [14], the system named is T98G glioblastoma cell line. As to the kind of experiment: MTT assay, T98G. It counts as cell-based. As to conditions: Homo sapiens, 48 h, read-out: IC50 (50% inhibition of cell growth). Here is the method: as §3, §1
The mark [15] stands for this setting: U87MG xenograft, 1 mg/kg BZM and 7.5 mg/kg DMC individually or in combination, 50 h.

`CS(=O)(=O)c1ccc(C2=C(c3ccccc3)C(=O)OC2)cc1` [rofecoxib, 4-(4′-methylsulfonylphenyl)-3-phenyl-2-(5H)-furanone]: the “detectable effect on cell growth and survival (MTT)” value in [1] (U251, 48 hours, concentrations of up to 100 μmol/L) is “none”. In addition, the “tumor growth on longer-term therapy” value in data set [2] is recorded as “not”. For the same compound, the “elevation of cytoplasmic calcium levels” value in [3] was “none”. Moreover, in data set [4] (U87 xenograft, short-term drug treatment), the “apoptosis in the tumor tissue” value is “did not display elevated levels of apoptosis”. Also, the “induction of cell death/apoptosis (cell death ELISA)” value in data set [5] was “did not induce apoptosis”. Also, in [6] (U251, 50 μmol/L, 4 h up to 24 h), the “CHOP expression, time kinetics” value is “neither rofecoxib nor valdecoxib at the same concentration resulted in any detectable CHOP expression”. Besides, the “increase in CHOP or GRP78 protein, concentration dependence” value in data set [6] (U251, 15 hours, concentrations up to 75 or 100 μmol/L) is “neither rofecoxib nor valdecoxib was able to stimulate any detectable increase”. The “CHOP staining of tumor tissues” value in data set [7] (U87 xenograft, 30-180 mg/kg per day for 50 h, DMC and celecoxib already at lowest dosages) is recorded as “consistently negative”. Moreover, the “CHOP protein expression in tumor tissue” value in data set [7] (U87 xenograft, animals fed drug for 50 h) is reported as “no such increase was observed”.
On to `Cn1nnc2c(C(N)=O)ncn2c1=O` [Temozolomide], for which the “cytotoxicity on tumor-associated brain endothelial cells” value in data set [8] is “little cytotoxicity”.
For `CC(C)C[C@H](NC(=O)[C@H](Cc1ccccc1)NC(=O)c1cnccn1)B(O)O` [bortezomib], the negative logarithm of the IC50 (pIC50) is approximately 8.00 in [1] (Homo sapiens, U-251, U251, 48 h, MTT, read-out: IC50 (50% inhibition of cell growth)); more than 8.30 in [10]; approximately 8.00 in data set [13]; approximately 8.00 in data set [14]. Besides, the “reduction of colony number” value in data set [9] is on record as approximately 50%. Besides, in data set [11], the “sensitivity of RPMI/8226 cells” value was “high sensitivity”. The “TUNEL staining of tumor tissue” value in [4] (setting [15]) is “increased TUNEL staining”. Besides, the “accumulation of polyubiquitinated proteins” value in data set [12] was “highly elevated levels of polyubiquitinated proteins”. Moreover, in data set [6] (U251, increasing concentrations, 24 hours), the “expression of GRP78 and CHOP” value was “increased expression of GRP78 and CHOP”. The “CHOP expression in tumor tissue” value in data set [7] (setting [15]) was “larger fraction of CHOP-positive cells”.
